Measurements from ChEMBL document CHEMBL4190162, “SAR and identification of 2-(quinolin-4-yloxy)acetamides as Mycobacterium tuberculosis cytochrome bc1 inhibitors” (Medchemcomm, 2016).
Values after ≈ are worked out from the molar mass of the structure shown.

Columns and labels:
[1] = test system: Mycobacterium tuberculosis; test: Antimycobacterial activity against Mycobacterium tuberculosis H37Rv harboring cyd deletion mutant measured after 2 weeks by microplate alamar blue assay; format: functional
[2] = test system: Mycobacterium tuberculosis H37Rv; test: Inhibition of QCR7 S182T mutant in Mycobacterium tuberculosis H37Rv harboring cyd deletion mutant assessed as reduction in bacterial growth relative to wild-type QCR7
[3] = test system: Mycobacterium tuberculosis H37Rv; test: Inhibition of QCR5 M342I mutant in Mycobacterium tuberculosis H37Rv harboring cyd deletion mutant assessed as reduction in bacterial growth relative to wild-type QCR5
[4] = test system: Mycobacterium tuberculosis H37Rv; test: Inhibition of QCR2 M342T mutant in Mycobacterium tuberculosis H37Rv harboring cyd deletion mutant assessed as reduction in bacterial growth relative to wild-type QCR2
[5] = test system: Mycobacterium tuberculosis H37Rv; test: Inhibition of QCR6 A317T mutant in Mycobacterium tuberculosis H37Rv harboring cyd deletion mutant assessed as reduction in bacterial growth relative to wild-type QCR6
[6] = test system: Mycobacterium tuberculosis H37Rv; test: Inhibition of QCR1 A317V mutant in Mycobacterium tuberculosis H37Rv harboring cyd deletion mutant assessed as reduction in bacterial growth relative to wild-type QCR1
[7] = test system: Mycobacterium tuberculosis H37Rv; test: Inhibition of QCR4 A396T mutant in Mycobacterium tuberculosis H37Rv harboring cyd deletion mutant assessed as reduction in bacterial growth relative to wild-type QCR4
[8] = test system: Mycobacterium tuberculosis H37Rv; test: Inhibition of QCR3 W312G mutant in Mycobacterium tuberculosis H37Rv harboring cyd deletion mutant assessed as reduction in bacterial growth relative to wild-type QCR3

Structure (SMILES) | MIC [1] [µM] | fold change (FC) [2] | fold change (FC) [3] | fold change (FC) [4] | fold change (FC) [5] | fold change (FC) [6] | fold change (FC) [7] | fold change (FC) [8]
COc1ccc2nc(C)cc(OCC(=O)Nc3ccc(Br)cc3)c2c1 | 0.17 (≈ 0.0682 µg/mL) | – | – | – | – | – | – | –
COc1ccc2nc(C)cc(OCC(=O)Nc3ccc(-c4ccccc4)cc3)c2c1 | 0.12 (≈ 0.0478 µg/mL) | – | – | – | – | – | – | –
CCCCCNC(=O)COc1cc(C)nc2ccc(OC)cc12 | 0.95 (≈ 0.301 µg/mL) | – | – | – | – | – | – | –
COc1ccc2nc(C)cc(OCC(=O)NCc3ccc4c(c3)OCO4)c2c1 | <0.063 | > 95.8 | > 12.5 | > 12.5 | > 32.5 | > 130 | > 6.3 | > 25
COc1ccc2nc(C)cc(OCC(=O)Nc3cccc(Br)c3)c2c1 | 0.37 (≈ 0.148 µg/mL) | – | – | – | – | – | – | –
COc1ccc(NC(=O)COc2cc(C)nc3ccc(OC)cc23)cc1 | 0.14 (≈ 0.0493 µg/mL) | 15.9 | 3.1 | 4.1 | 24.5 | 63.9 | 3.1 | 24.5
COc1ccc(NC(=O)COc2cc(C)nc3ccc(OC)cc23)c(OC)c1 | 0.18 (≈ 0.0688 µg/mL) | – | – | – | – | – | – | –
COc1ccccc1NC(=O)COc1cc(C)nc2ccc(Cl)cc12 | 1.09 (≈ 0.389 µg/mL) | – | – | – | – | – | – | –
COc1cccc(NC(=O)COc2cc(C)nc3ccc(OC)cc23)c1 | 0.57 (≈ 0.201 µg/mL) | – | – | – | – | – | – | –
COc1ccc2nc(C)cc(OCC(=O)Nc3ccc(C)cc3)c2c1 | <0.071 | > 16.3 | 1 | > 2 | > 12.5 | > 32.5 | > 2 | > 16.3
Nc1ccc(C(=O)O)c(O)c1 [AMINOSALICYLIC ACID] | 0.6 (≈ 0.0919 µg/mL) | 0.5 | 0.5 | 0.3 | 0.2 | 0.5 | 0.3 | 0.5
COc1ccc2nc(C)cc(OCC(=O)Nc3ccc(Cl)cc3)c2c1 | 0.2 (≈ 0.0714 µg/mL) | – | – | – | – | – | – | –
COc1ccccc1NC(=O)COc1cc(C)nc2ccc(C)cc12 | 0.45 (≈ 0.151 µg/mL) | – | – | – | – | – | – | –
COc1ccc2nc(C)cc(OCC(=O)Nc3ccccc3Cl)c2c1 | <0.067 | – | – | – | – | – | – | –
COc1ccccc1NC(=O)COc1cc(C)nc2ccccc12 | 7.13 (≈ 2.3 µg/mL) | – | – | – | – | – | – | –
COc1ccccc1NC(=O)COc1cc(C)nc2ccc(C(F)(F)F)cc12 | >128 | – | – | – | – | – | – | –

Structure (SMILES) | MIC [1] [µM] | fold change (FC) [2] | fold change (FC) [3] | fold change (FC) [4] | fold change (FC) [5] | fold change (FC) [6] | fold change (FC) [7] | fold change (FC) [8]
COCCNC(=O)COc1cc(C)nc2ccc(OC)cc12 | 41.06 (≈ 12.5 µg/mL) | – | – | – | – | – | – | –
COc1ccccc1NC(=O)COc1cc(C)nc2ccc(Br)cc12 | 0.5 (≈ 0.201 µg/mL) | – | – | – | – | – | – | –
COc1ccc2nc(C)cc(OCC(=O)Nc3ccccc3)c2c1 | 0.12 (≈ 0.0387 µg/mL) | 19.5 | 1.8 | 3.8 | 30 | > 1250 | 5 | 235
C#CCNC(=O)COc1cc(C)nc2ccc(OC)cc12 | 21.98 (≈ 6.25 µg/mL) | – | – | – | – | – | – | –
COc1ccc2nc(C)cc(OCC(=O)NCc3ccccc3)c2c1 | 0.59 (≈ 0.198 µg/mL) | 15.7 | 3.9 | 3 | 23.5 | > 250 | 3.9 | 47
COc1ccc2nc(C)cc(OCC(=O)NCCc3ccc(OC)c(OC)c3)c2c1 | 90.13 (≈ 37 µg/mL) | – | – | – | – | – | – | –
COc1ccc2nc(C)cc(OCC(=O)NCCCc3ccccc3)c2c1 | 2.14 (≈ 0.78 µg/mL) | – | – | – | – | – | – | –
COc1ccc2nc(C)cc(OCC(=O)Nc3ccccc3OC)c2c1 | 0.14 (≈ 0.0493 µg/mL) | 15.9 | 6.1 | 1.4 | 24.5 | 46.9 | 4.1 | 46.9
COc1cc(NC(=O)COc2cc(C)nc3ccc(OC)cc23)cc(OC)c1 | 2.04 (≈ 0.78 µg/mL) | – | – | – | – | – | – | –
COc1ccc2nc(C)cc(OCC(=O)Nc3ccc4c(c3)OCO4)c2c1 | 0.19 (≈ 0.0696 µg/mL) | 32.9 | 1.4 | 2.1 | 32.9 | 134 | 5.6 | 17.1
CC(=O)NC[C@H]1CN(c2ccc(N3CCOCC3)c(F)c2)C(=O)O1 [LINEZOLID] | 1.56 (≈ 0.526 µg/mL) | – | – | – | – | – | – | –
COc1ccc2nc(C)cc(OCC(=O)NCCc3ccccc3)c2c1 | 4.45 (≈ 1.56 µg/mL) | – | – | – | – | – | – | –
COc1ccc2nc(C)cc(OCC(=O)NCCc3ccc4c(c3)OCO4)c2c1 | 3.04 (≈ 1.2 µg/mL) | – | – | – | – | – | – | –
COc1ccc2nc(C)cc(OCC(=O)Nc3ccc(OC)c(OC)c3)c2c1 | 3.14 (≈ 1.2 µg/mL) | – | – | – | – | – | – | –
c1ccc(Cn2cnc3c(-c4ccco4)nccc32)cc1 | 0.31 (≈ 0.0853 µg/mL) | 61.3 | 20.2 | 20.2 | 10.1 | > 81 | 20.2 | > 81
COc1ccc(OC)c(CCNC(=O)COc2cc(C)nc3ccc(OC)cc23)c1 | 7.62 (≈ 3.13 µg/mL) | – | – | – | – | – | – | –
